According to US10238670B2, “9-aminomethyl minocycline compounds and methods of use thereof in urinary tract infection (UTI) treatment” (Paratek Pharmaceuticals, Inc., priority 2016, dated 2019):
Converted amounts (≈) assume the structure as drawn.

Assays:
Assay in all cases: In vitro MIC, 2010 surveillance isolates
MS CoNS = type: cell-based, Coagulase-Negative Staphylococcus
MRSA = type: cell-based
MR CoNS = type: cell-based, Coagulase-Negative Staphylococcus
E. faecalis VS = type: cell-based
E. faecalis VNS = type: cell-based
E. faecium VNS = type: cell-based
E. faecium VS = type: cell-based
MSSA = type: cell-based

CN[C@H](CC(C)C)C(=O)N[C@H]1C(=O)N[C@@H](CC(N)=O)C(=O)N[C@H]2C(=O)N[C@H]3C(=O)N[C@H](C(=O)N[C@H](C(=O)O)c4cc(O)cc(O)c4-c4cc3ccc4O)[C@H](O)c3ccc(c(Cl)c3)Oc3cc2cc(c3O[C@@H]2O[C@H](CO)[C@@H](O)[C@H](O)[C@H]2O[C@H]2C[C@](C)(N)[C@H](O)[C@H](C)O2)Oc2ccc(cc2Cl)[C@H]1O [Vancomycin]
% R (resistance) (MS CoNS; Asia/Pac, Eucast breakpoints): 0%
MIC90 (MS CoNS; Asia/Pac, N=18): 2 µg/mL (≈ 1.38 µM)
% R (resistance) (MS CoNS; Europe, Eucast breakpoints): 1.1%
MIC90 (MS CoNS; Europe, N=185): 2 µg/mL (≈ 1.38 µM)
% R (resistance) (MS CoNS; L. Amer, CLSI breakpoints): 0%
MIC90 (MS CoNS; L. Amer, N=67): 2 µg/mL (≈ 1.38 µM)
% R (resistance) (MS CoNS; N America, CLSI breakpoints): 0%
MIC90 (MS CoNS; N America, N=191): 2 µg/mL (≈ 1.38 µM)
% R (resistance) (MRSA; Asia/Pac, Eucast breakpoints): 0%
MIC90 (MRSA; Asia/Pac, N=428): 1 µg/mL (≈ 0.69 µM)
% R (resistance) (MRSA; Europe, Eucast breakpoints): 0%
MIC90 (MRSA; Europe, N=750): 1 µg/mL (≈ 0.69 µM)
% R (resistance) (MRSA; L. Amer, CLSI breakpoints): 0%
MIC90 (MRSA; L. Amer, N=506): 1 µg/mL (≈ 0.69 µM)
% R (resistance) (MRSA; N America, CLSI breakpoints): 0%
MIC90 (MRSA; N America, N=2508): 1 µg/mL (≈ 0.69 µM)
% R (resistance) (MR CoNS; Asia/Pac, Eucast breakpoints): 1.3%
MIC90 (MR CoNS; Asia/Pac, N=77): 2 µg/mL (≈ 1.38 µM)
% R (resistance) (MR CoNS; Europe, Eucast breakpoints): 0.4%
MIC90 (MR CoNS; Europe, N=510): 2 µg/mL (≈ 1.38 µM)
% R (resistance) (MR CoNS; L. Amer, CLSI breakpoints): 0%
MIC90 (MR CoNS; L. Amer, N=301): 2 µg/mL (≈ 1.38 µM)
% R (resistance) (MR CoNS; N America, CLSI breakpoints): 0%
MIC90 (MR CoNS; N America, N=461): 2 µg/mL (≈ 1.38 µM)
% R (resistance) (E. faecalis VS; Asia/Pac, Eucast breakpoints): 0%
MIC90 (E. faecalis VS; Asia/Pac, N=214): 2 µg/mL (≈ 1.38 µM)
% R (resistance) (E. faecalis VS; Europe, Eucast breakpoints): 0%
MIC90 (E. faecalis VS; Europe, N=669): 2 µg/mL (≈ 1.38 µM)
% R (resistance) (E. faecalis VS; L. Amer, CLSI breakpoints): 0%
MIC90 (E. faecalis VS; L. Amer, N=290): 2 µg/mL (≈ 1.38 µM)
% R (resistance) (E. faecalis VS; N America, CLSI breakpoints): 0%
MIC90 (E. faecalis VS; N America, N=863): 2 µg/mL (≈ 1.38 µM)
range of MICs (N <10, shown instead of MIC90) (E. faecalis VNS; Asia/Pac, N=1): >16
% R (resistance) (E. faecalis VNS; Europe, Eucast breakpoints): 100%
range of MICs (N <10, shown instead of MIC90) (E. faecalis VNS; Europe, N=8): > 16
% R (resistance) (E. faecalis VNS; L. Amer, CLSI breakpoints): 100%
range of MICs (N <10, shown instead of MIC90) (E. faecalis VNS; L. Amer, N=7): > 16
% R (resistance) (E. faecalis VNS; N America, CLSI breakpoints): 92.1%
MIC90 (E. faecalis VNS; N America, N=38): > 16 µg/mL
% R (resistance) (E. faecium VNS; Asia/Pac, Eucast breakpoints): 100%
MIC90 (E. faecium VNS; Asia/Pac, N=24): > 16 µg/mL
% R (resistance) (E. faecium VNS; Europe, Eucast breakpoints): 100%
MIC90 (E. faecium VNS; Europe, N=71): > 16 µg/mL
% R (resistance) (E. faecium VNS; L. Amer, CLSI breakpoints): 100%
MIC90 (E. faecium VNS; L. Amer, N=41): > 16 µg/mL
% R (resistance) (E. faecium VNS; N America, CLSI breakpoints): 99.4%
MIC90 (E. faecium VNS; N America, N=478): > 16 µg/mL
% R (resistance) (E. faecium VS; Asia/Pac, Eucast breakpoints): 0%
MIC90 (E. faecium VS; Asia/Pac, N=106): 1 µg/mL (≈ 0.69 µM)
% R (resistance) (E. faecium VS; Europe, Eucast breakpoints): 0%
MIC90 (E. faecium VS; Europe, N=303): 1 µg/mL (≈ 0.69 µM)
% R (resistance) (E. faecium VS; L. Amer, CLSI breakpoints): 0%
MIC90 (E. faecium VS; L. Amer, N=51): 1 µg/mL (≈ 0.69 µM)
% R (resistance) (E. faecium VS; N America, CLSI breakpoints): 0%
MIC90 (E. faecium VS; N America, N=115): 1 µg/mL (≈ 0.69 µM)
% R (resistance) (MSSA; Asia/Pac, Eucast breakpoints): 0%
MIC90 (MSSA; Asia/Pac, N=641): 1 µg/mL (≈ 0.69 µM)
% R (resistance) (MSSA; Europe, Eucast breakpoints): 0%
MIC90 (MSSA; Europe, N=2109): 1 µg/mL (≈ 0.69 µM)
% R (resistance) (MSSA; L. Amer, CLSI breakpoints): 0%
MIC90 (MSSA; L. Amer, N=590): 1 µg/mL (≈ 0.69 µM)
% R (resistance) (MSSA; N America, CLSI breakpoints): 0%
MIC90 (MSSA; N America, N=2373): 1 µg/mL (≈ 0.69 µM)
